Key:
Type in all cases: in vivo
[1] = test system: barnyardgrass (Echinochloa crus-galli, ECHCG); assay: Greenhouse herbicide screen, post-emerge application, phytotoxicity rating; conditions: POST emergent, 14 days after application, scale 0-100
From the text: (§1) A standard greenhouse herbicide activity screening system was used to evaluate the herbicidal efficacy and crop safety of these test compounds. Seven broadleaf weed species including redroot pigweed (Amaranthus retrofiexus, AMARE), velvetleaf (Abutilon theophrasti, ABUTH), sicklepod (Cassia obtusifolia, CASOB), ivyleaf morningglory (Ipomoea hederacea, IPOHE), lambsquarters (Chenopodium album, CHEAL), common ragweed (Ambrosia artemisiifolia L., AMBEL), and cocklebur (Xanthium strumarium, XANST) were used as test species. Four grass weed species including green foxtail (Setaria viridis, SETVI), barnyardgrass (Echinochloa crus-galli, ECHCG), johnsongrass (Sorghum halepense, SORHA), and large crabgrass (Digitaria sanguinalis, DIGSA) were also used. In addition, four crop species, field corn (Zea mays L., var. Dekalb 535, CORN), soybean (Glycine max L., var. Pella 86, SOY), upland rice (Oryza sp., var.Cocodrie, RICE) and wheat (Triticum aestivum L.) were included.
(§2) All plants were grown in 10 cm square plastic pots which were filled with a sandy loam soil mix. For pre-emerge tests, seeds were planted one day prior to application of the test compounds. For post-emerge tests, seeds were planted 8-21 days prior to the test to allow emergence and good foliage development prior to application of the test substances. At the time of the post-emerge application, plants of all species were usually at the 2-3 leaf stage of development.
(§3) All test compounds were dissolved in acetone and applied to the test units in a volume of 187 l/ha. Test materials were applied at rates ranging from 15 g ai/ha to 1000 g ai/ha using a track sprayer equipped with a TJ8001E even flow flat fan spray nozzle. Plants were arranged on a shelf so that the top of the canopy (post-emerge) or top of the soil surface (pre-emerge) was 40-45 cm below the nozzle. Pressurized air was used to force the test solution through the nozzle as it was mechanically advanced (via electrically driven chain drive) over the top of all test plants/pots. This application simulates a typical commercial field herbicide application.
(§4) Pre-emergence tests were top watered immediately after treatment to incorporate the test materials, then routinely top-watered for normal growth. Post-emerge test units were always bottom-watered.
(§5) At 14 days after application of the test materials, phytotoxicity ratings were recorded. A rating scale of 0-100 was used as previously described in Research Methods in Weed Science, 2nd edition, B. Truelove, Ed., Southern Weed Science Society, Auburn University, Auburn, Ala., 1977. Briefly, “0” corresponds to no damage and “100” corresponds to complete death of all plants in the test unit. This scale was used both to determine efficacy against weed species and damage to crop species. Herbicide activity data for various compounds of this invention, which are shown by compound No. in Tables 1-12, are shown in Tables 13 and 14.

[2] = test system: cocklebur (Xanthium strumarium, XANST); assay: as above; conditions: POST emergent, 14 days after application, scale 0-100
From the text: as §1, §2, §3, §4, §5

[3] = test system: common ragweed (Ambrosia artemisiifolia L., AMBEL); assay: as above; conditions: POST emergent, 14 days after application, scale 0-100
From the text: as §1, §2, §3, §4, §5

[4] = test system: green foxtail (Setaria viridis, SETVI); assay: as above; conditions: POST emergent, 14 days after application, scale 0-100
From the text: as §1, §2, §3, §4, §5

[5] = test system: ivyleaf morningglory (Ipomoea hederacea, IPOHE); assay: as above; conditions: POST emergent, 14 days after application, scale 0-100
From the text: as §1, §2, §3, §4, §5

[6] = test system: johnsongrass (Sorghum halepense, SORHA); assay: as above; conditions: POST emergent, 14 days after application, scale 0-100
From the text: as §1, §2, §3, §4, §5

[7] = test system: lambsquarters (Chenopodium album, CHEAL); assay: as above; conditions: POST emergent, 14 days after application, scale 0-100
From the text: as §1, §2, §3, §4, §5

[8] = test system: large crabgrass (Digitaria sanguinalis, DIGSA); assay: as above; conditions: POST emergent, 14 days after application, scale 0-100
From the text: as §1, §2, §3, §4, §5

[9] = test system: redroot pigweed (Amaranthus retrofiexus, AMARE); assay: as above; conditions: POST emergent, 14 days after application
From the text: as §1, §2, §3, §4, §5

[10] = test system: sicklepod (Cassia obtusifolia, CASOB); assay: as above; conditions: POST emergent, 14 days after application, scale 0-100
From the text: as §1, §2, §3, §4, §5

[11] = test system: velvetleaf (Abutilon theophrasti, ABUTH); assay: as above; conditions: POST emergent, 14 days after application, scale 0-100
From the text: as §1, §2, §3, §4, §5

[12] = test system: barnyardgrass (Echinochloa crus-galli, ECHCG); assay: Greenhouse herbicide screen, pre-emerge application, phytotoxicity rating; conditions: PRE emergent, 14 days after application, rating scale 0-100
From the text: as §1, §2, §3, §4, §5

[13] = test system: cocklebur (Xanthium strumarium, XANST); assay: as above; conditions: PRE emergent, 14 days after application, rating scale 0-100
From the text: as §1, §2, §3, §4, §5

[14] = test system: common ragweed (Ambrosia artemisiifolia L., AMBEL); assay: as above; conditions: PRE emergent, 14 days after application, rating scale 0-100
From the text: as §1, §2, §3, §4, §5

[15] = test system: green foxtail (Setaria viridis, SETVI); assay: as above; conditions: PRE emergent, 14 days after application, rating scale 0-100
From the text: as §1, §2, §3, §4, §5

[16] = test system: ivyleaf morningglory (Ipomoea hederacea, IPOHE); assay: as above; conditions: PRE emergent, 14 days after application, rating scale 0-100
From the text: as §1, §2, §3, §4, §5

[17] = test system: johnsongrass (Sorghum halepense, SORHA); assay: as above; conditions: PRE emergent, 14 days after application, rating scale 0-100
From the text: as §1, §2, §3, §4, §5

[18] = test system: lambsquarters (Chenopodium album, CHEAL); assay: as above; conditions: PRE emergent, 14 days after application, rating scale 0-100
From the text: as §1, §2, §3, §4, §5

[19] = test system: large crabgrass (Digitaria sanguinalis, DIGSA); assay: as above; conditions: PRE emergent, 14 days after application, rating scale 0-100
From the text: as §1, §2, §3, §4, §5

[20] = test system: redroot pigweed (Amaranthus retrofiexus, AMARE); assay: as above; conditions: PRE emergent, 14 days after application, rating scale 0-100
From the text: as §1, §2, §3, §4, §5

[21] = test system: sicklepod (Cassia obtusifolia, CASOB); assay: as above; conditions: PRE emergent, 14 days after application, rating scale 0-100
From the text: as §1, §2, §3, §4, §5

[22] = test system: velvetleaf (Abutilon theophrasti, ABUTH); assay: as above; conditions: PRE emergent, 14 days after application, rating scale 0-100
From the text: as §1, §2, §3, §4, §5

[23] = 63 g ai/ha, scale 0-100 (0 no damage, 100 complete death)

Compound: COC(=NN=C(C(C)(C)C)C(C)(C)C)c1cc(-n2c(=O)cc(C(F)(F)F)n(C)c2=O)c(F)cc1Cl [Compound 5-6, 2-chloro-5-(3,6-dihydro-3-methyl-2,6-dioxo-4-(trifluoromethyl)-1(2H)-pyrimidinyl)-N-[1-(1,1-dimethylethyl)-2,2-dimethylpropylidene]-4-fluoro-benzenecarbohydrazonic Acid Methyl Ester]
- phytotoxicity rating ECHCO ([1]; 63 g ai/ha): 40
- phytotoxicity rating ECHCO ([1]; 250 g ai/ha): 90
- phytotoxicity rating XANST ([2]; 63 g ai/ha): 0
- phytotoxicity rating XANST ([2]; 250 g ai/ha): 10
- phytotoxicity rating AMBEL ([3]; 63 g ai/ha): 35
- phytotoxicity rating AMBEL ([3]; 250 g ai/ha): 99
- phytotoxicity rating SETVI ([4]; 63 g ai/ha): 95
- phytotoxicity rating SETVI ([4]; 250 g ai/ha): 100
- phytotoxicity rating IPOHE ([5]; 63 g ai/ha): 35
- phytotoxicity rating IPOHE ([5]; 250 g ai/ha): 70
- phytotoxicity rating SORHA ([6]; 63 g ai/ha): 25
- phytotoxicity rating SORHA ([6]; 250 g ai/ha): 100
- phytotoxicity rating CHEAL ([7]; 63 g ai/ha): 100
- phytotoxicity rating CHEAL ([7]; 250 g ai/ha): 100
- phytotoxicity rating DIGSA ([8]; 63 g ai/ha): 20
- phytotoxicity rating DIGSA ([8]; 250 g ai/ha): 99
- phytotoxicity rating AMARE [9, 23]: 100
- phytotoxicity rating AMARE ([9]; 250 g ai/ha, scale 0-100): 100
- phytotoxicity rating CASOB ([10]; 63 g ai/ha): 40
- phytotoxicity rating CASOB ([10]; 250 g ai/ha): 98
- phytotoxicity rating ABUTH ([11]; 63 g ai/ha): 75
- phytotoxicity rating ABUTH ([11]; 250 g ai/ha): 95
- phytotoxicity rating ECHCG ([12]; 63 g ai/ha): 40
- phytotoxicity rating ECHCG ([12]; 250 g ai/ha): 90
- phytotoxicity rating XANST ([13]; 63 g ai/ha): 0
- phytotoxicity rating XANST ([13]; 250 g ai/ha): 10
- phytotoxicity rating AMBEL ([14]; 63 g ai/ha): 35
- phytotoxicity rating AMBEL ([14]; 250 g ai/ha): 99
- phytotoxicity rating SETVI ([15]; 63 g ai/ha): 95
- phytotoxicity rating SETVI ([15]; 250 g ai/ha): 100
- phytotoxicity rating IPOHE ([16]; 63 g ai/ha): 35
- phytotoxicity rating IPOHE ([16]; 250 g ai/ha): 70
- phytotoxicity rating SORHA ([17]; 63 g ai/ha): 25
- phytotoxicity rating SORHA ([17]; 250 g ai/ha): 100
- phytotoxicity rating CHEAL ([18]; 63 g ai/ha): 100
- phytotoxicity rating CHEAL ([18]; 250 g ai/ha): 100
- phytotoxicity rating DIGSA ([19]; 63 g ai/ha): 20
- phytotoxicity rating DIGSA ([19]; 250 g ai/ha): 99
- phytotoxicity rating AMARE ([20]; 63 g ai/ha): 100
- phytotoxicity rating AMARE ([20]; 250 g ai/ha): 100
- phytotoxicity rating CASOB ([21]; 63 g ai/ha): 40
- phytotoxicity rating CASOB ([21]; 250 g ai/ha): 98
- phytotoxicity rating ABUTH ([22]; 63 g ai/ha): 75
- phytotoxicity rating ABUTH ([22]; 250 g ai/ha): 95

Compound: Cn1c(C(F)(F)F)cc(=O)n(-c2cc(C(=O)NN=C(C(C)(C)C)C(C)(C)C)c(Cl)cc2F)c1=O [Compound 6-4, 2-chloro-5-(3,6-dihydro-3-methyl-2,6-dioxo-4-(trifluoromethyl)-1(2H)-pyrimidinyl)-4-fluoro-benzoic acid, 2-[1-(1,1-dimethylethyl)-2,2-dimethylpropylidene]hydrazide]
- phytotoxicity rating ECHCO ([1]; 63 g ai/ha): 80
- phytotoxicity rating ECHCO ([1]; 250 g ai/ha): 100
- phytotoxicity rating XANST ([2]; 63 g ai/ha): 100
- phytotoxicity rating XANST ([2]; 250 g ai/ha): 100
- phytotoxicity rating AMBEL ([3]; 63 g ai/ha): 75
- phytotoxicity rating AMBEL ([3]; 250 g ai/ha): 100
- phytotoxicity rating SETVI ([4]; 63 g ai/ha): 85
- phytotoxicity rating SETVI ([4]; 250 g ai/ha): 100
- phytotoxicity rating IPOHE ([5]; 63 g ai/ha): 100
- phytotoxicity rating IPOHE ([5]; 250 g ai/ha): 100
- phytotoxicity rating SORHA ([6]; 63 g ai/ha): 75
- phytotoxicity rating SORHA ([6]; 250 g ai/ha): 100
- phytotoxicity rating CHEAL ([7]; 63 g ai/ha): 100
- phytotoxicity rating CHEAL ([7]; 250 g ai/ha): 100
- phytotoxicity rating DIGSA ([8]; 63 g ai/ha): 50
- phytotoxicity rating DIGSA ([8]; 250 g ai/ha): 70
- phytotoxicity rating AMARE [9, 23]: 100
- phytotoxicity rating AMARE ([9]; 250 g ai/ha, scale 0-100): 100
- phytotoxicity rating CASOB ([10]; 63 g ai/ha): 99
- phytotoxicity rating CASOB ([10]; 250 g ai/ha): 95
- phytotoxicity rating ABUTH ([11]; 63 g ai/ha): 100
- phytotoxicity rating ABUTH ([11]; 250 g ai/ha): 100
- phytotoxicity rating ECHCG ([12]; 63 g ai/ha): 98
- phytotoxicity rating ECHCG ([12]; 250 g ai/ha): 100
- phytotoxicity rating XANST ([13]; 63 g ai/ha): 98
- phytotoxicity rating XANST ([13]; 250 g ai/ha): 100
- phytotoxicity rating AMBEL ([14]; 63 g ai/ha): 100
- phytotoxicity rating AMBEL ([14]; 250 g ai/ha): 100
- phytotoxicity rating SETVI ([15]; 63 g ai/ha): 100
- phytotoxicity rating SETVI ([15]; 250 g ai/ha): 100
- phytotoxicity rating IPOHE ([16]; 63 g ai/ha): 100
- phytotoxicity rating IPOHE ([16]; 250 g ai/ha): 100
- phytotoxicity rating SORHA ([17]; 63 g ai/ha): 99
- phytotoxicity rating SORHA ([17]; 250 g ai/ha): 100
- phytotoxicity rating CHEAL ([18]; 63 g ai/ha): 100
- phytotoxicity rating CHEAL ([18]; 250 g ai/ha): 100
- phytotoxicity rating DIGSA ([19]; 63 g ai/ha): 100
- phytotoxicity rating DIGSA ([19]; 250 g ai/ha): 100
- phytotoxicity rating AMARE ([20]; 63 g ai/ha): 100
- phytotoxicity rating AMARE ([20]; 250 g ai/ha): 100
- phytotoxicity rating CASOB ([21]; 63 g ai/ha): 98
- phytotoxicity rating CASOB ([21]; 250 g ai/ha): 100
- phytotoxicity rating ABUTH ([22]; 63 g ai/ha): 100
- phytotoxicity rating ABUTH ([22]; 250 g ai/ha): 100
